Mutagenic call data for 6 compounds are collected here from PubChem BioAssay AID1259407 (Chemical Carcinogenesis Research Information System (CCRIS), 2018).

The data set concerns CCRIS mutagenicity, Ames/micronucleus/aberration tests. Kind of data set: CCRIS mutagenicity studies.
Where [1] appears, read: End Point: In vitro micronucleus, Test System: Chinese Hamster Ovary (CHO-WBL) cells, Metabolic Activation: None.
Setting [2] is: Test System: AMES SALMONELLA TYPHIMURIUM, Strain/Indicator: TA98, Metabolic Activation: NONE, Method: PREINCUBATION
[3] abbreviates: Test System: AMES SALMONELLA TYPHIMURIUM, Strain/Indicator: TA100, Metabolic Activation: NONE, Method: PREINCUBATION
Where [4] appears, read: Test System: AMES SALMONELLA TYPHIMURIUM, Strain/Indicator: TA1535, Metabolic Activation: NONE, Method: PREINCUBATION
Where [5] appears, read: Test System: AMES SALMONELLA TYPHIMURIUM, Strain/Indicator: TA1537, Metabolic Activation: NONE, Method: PREINCUBATION

Active and inactive are the calls of the source. No rule for the calls is given here.

As for `CCCBr`, the mutagenic call reads like this: under setting [1], “inactive; negative”; under setting [2], “inactive; negative”; (Test System: AMES SALMONELLA TYPHIMURIUM, Strain/Indicator: TA98, Metabolic Activation: RAT LIVER S-9, PHENOBARBITAL AND BETA-NAPHTHOFLAVONE, Method: PREINCUBATION) “inactive; negative”; under setting [3], “inactive; negative”; (Test System: AMES SALMONELLA TYPHIMURIUM, Strain/Indicator: TA100, Metabolic Activation: RAT LIVER S-9, PHENOBARBITAL AND BETA-NAPHTHOFLAVONE, Method: PREINCUBATION) “inactive; negative”; (Test System: AMES SALMONELLA TYPHIMURIUM, Strain/Indicator: TA102, Metabolic Activation: NONE, Method: PREINCUBATION) “inactive; negative”. Besides, the mutagenic call reads like this: (Test System: AMES SALMONELLA TYPHIMURIUM, Strain/Indicator: TA102, Metabolic Activation: RAT LIVER S-9, PHENOBARBITAL AND BETA-NAPHTHOFLAVONE, Method: PREINCUBATION) “inactive; negative”; (Test System: AMES SALMONELLA TYPHIMURIUM, Strain/Indicator: TA104, Metabolic Activation: NONE, Method: PREINCUBATION) “inactive; negative”; (Test System: AMES SALMONELLA TYPHIMURIUM, Strain/Indicator: TA104, Metabolic Activation: RAT LIVER S-9, PHENOBARBITAL AND BETA-NAPHTHOFLAVONE, Method: PREINCUBATION) “inactive; negative”; under setting [4], “inactive; negative”; (Test System: AMES SALMONELLA TYPHIMURIUM, Strain/Indicator: TA1535, Metabolic Activation: RAT LIVER S-9, PHENOBARBITAL AND BETA-NAPHTHOFLAVONE, Method: PREINCUBATION) “inactive; negative”; under setting [5], “inactive; negative”. Moreover, the mutagenic call was “inactive; negative” (Test System: AMES SALMONELLA TYPHIMURIUM, Strain/Indicator: TA1537, Metabolic Activation: RAT LIVER S-9, PHENOBARBITAL AND BETA-NAPHTHOFLAVONE, Method: PREINCUBATION); “inactive; negative” (Test System: E.COLI, Strain/Indicator: WP2UVRA/PKM101, Metabolic Activation: NONE, Method: PREINCUBATION); “inactive; negative” (Test System: E.COLI, Strain/Indicator: WP2UVRA/PKM101, Metabolic Activation: RAT LIVER S-9, PHENOBARBITAL AND BETA-NAPHTHOFLAVONE, Method: PREINCUBATION); “inactive; negative” (Test System: E.COLI, Strain/Indicator: WP2UVRA, Metabolic Activation: NONE, Method: PREINCUBATION); “inactive; negative” (Test System: E.COLI, Strain/Indicator: WP2UVRA, Metabolic Activation: RAT LIVER S-9, PHENOBARBITAL AND BETA-NAPHTHOFLAVONE, Method: PREINCUBATION).

Turning to `CC(C)=CCC/C(C)=C/C=C/C(C)=C/C=C/C(C)=C/C=C/C=C(C)/C=C/C=C(C)/C=C/C=C(\C)CCC=C(C)C`, the mutagenic call is “inactive; negative” under setting [2]; “inactive; negative” (Test System: AMES SALMONELLA TYPHIMURIUM, Strain/Indicator: TA98, Metabolic Activation: RAT LIVER S-9, Method: PREINCUBATION); “inactive; negative” under setting [3]; “inactive; negative” (Test System: AMES SALMONELLA TYPHIMURIUM, Strain/Indicator: TA100, Metabolic Activation: RAT LIVER S-9, Method: PREINCUBATION); “inactive; negative” under setting [4]; “inactive; negative” (Test System: AMES SALMONELLA TYPHIMURIUM, Strain/Indicator: TA1535, Metabolic Activation: RAT LIVER S-9, Method: PREINCUBATION). For the same compound, the mutagenic call is “inactive; negative” under setting [5]; “inactive; negative” (Test System: AMES SALMONELLA TYPHIMURIUM, Strain/Indicator: TA1537, Metabolic Activation: RAT LIVER S-9, Method: PREINCUBATION); “inactive; negative” (Test System: ESCHERICHIA COLI, Strain/Indicator: WP2 UVR A, Metabolic Activation: NONE, Method: PREINCUBATION); “inactive; negative” (Test System: ESCHERICHIA COLI, Strain/Indicator: WP2 UVR A, Metabolic Activation: RAT LIVER S-9, Method: PREINCUBATION).

As for `N[C@@H](Cc1c[nH]c2ccc(O)cc12)C(=O)O`, under setting [3], the mutagenic call was “inactive; negative”.

As to `CC(=O)OCc1ccc2c(c1)OCO2`, the mutagenic call by setting is: (Test System: AMES SALMONELLA TYPHIMURIUM, Strain/Indicator: TA98, Metabolic Activation: HAMSTER, LIVER, S-9, AROCLOR 1254 (10%), Method: PREINCUBATION) “inactive; negative”; under setting [2], “inactive; negative”; (Test System: AMES SALMONELLA TYPHIMURIUM, Strain/Indicator: TA98, Metabolic Activation: RAT, LIVER, S-9, AROCLOR 1254 (10%), Method: PREINCUBATION) “inactive; negative”; (Test System: AMES SALMONELLA TYPHIMURIUM, Strain/Indicator: TA100, Metabolic Activation: HAMSTER, LIVER, S-9, AROCLOR 1254 (10%), Method: PREINCUBATION) “inactive; negative”; under setting [3], “inactive; negative”; (Test System: AMES SALMONELLA TYPHIMURIUM, Strain/Indicator: TA100, Metabolic Activation: RAT, LIVER, S-9, AROCLOR 1254 (10%), Method: PREINCUBATION) “inactive; negative”. Besides, the mutagenic call by setting is: (Test System: AMES SALMONELLA TYPHIMURIUM, Strain/Indicator: TA1535, Metabolic Activation: HAMSTER, LIVER, S-9, AROCLOR 1254 (10%), Method: PREINCUBATION) “inactive; negative”; under setting [4], “inactive; negative”; (Test System: AMES SALMONELLA TYPHIMURIUM, Strain/Indicator: TA1535, Metabolic Activation: RAT, LIVER, S-9, AROCLOR 1254 (10%), Method: PREINCUBATION) “inactive; negative”; (Test System: AMES SALMONELLA TYPHIMURIUM, Strain/Indicator: TA1537, Metabolic Activation: HAMSTER, LIVER, S-9, AROCLOR 1254 (10%), Method: PREINCUBATION) “inactive; negative”; under setting [5], “inactive; negative”; (Test System: AMES SALMONELLA TYPHIMURIUM, Strain/Indicator: TA1537, Metabolic Activation: RAT, LIVER, S-9, AROCLOR 1254 (10%), Method: PREINCUBATION) “inactive; negative”.

Take `CCCCOS(=O)(=O)c1ccc(C)cc1`: the mutagenic call (End Point: IN VITRO MICRONUCLEUS, Test System: MOUSE LYMPHOMA L5178Y CELLS, Metabolic Activation: NONE) was “active; positive”; the mutagenic call (End Point: IN VITRO MICRONUCLEUS, Test System: MOUSE LYMPHOMA L5178Y CELLS, Metabolic Activation: RAT, LIVER, S-9) is “inactive; negative”; the mutagenic call under setting [1] was “active; positive (p<0.01)”; the mutagenic call (Test System: AMES SALMONELLA TYPHIMURIUM, Strain/Indicator: TA100, Metabolic Activation: NONE, Method: STANDARD PLATE) is “active; positive”; the mutagenic call (Test System: AMES SALMONELLA TYPHIMURIUM, Strain/Indicator: TA100, Metabolic Activation: RAT, LIVER, S-9, Method: STANDARD PLATE) is “active; positive”.

With `Nc1ccc2cccc3c2c1-c1ccccc1-3`, the mutagenic call was “active; positive” (Test System: AMES SALMONELLA TYPHIMURIUM, Strain/Indicator: TA98, Metabolic Activation: RAT, LIVER, S-9, AROCLOR 1254 (2 OR 4%), Method: STANDARD PLATE); “active; positive” (Test System: AMES SALMONELLA TYPHIMURIUM, Strain/Indicator: TA100, Metabolic Activation: RAT, LIVER, S-9, AROCLOR 1254 (4%), Method: STANDARD PLATE); “inactive; negative” (Test System: AMES SALMONELLA TYPHIMURIUM, Strain/Indicator: TA1535, Metabolic Activation: RAT, LIVER, S-9, AROCLOR 1254 (4%), Method: STANDARD PLATE); “active; positive” (Test System: AMES SALMONELLA TYPHIMURIUM, Strain/Indicator: TA1537, Metabolic Activation: RAT, LIVER, S-9, AROCLOR 1254 (4%), Method: STANDARD PLATE).
